Assay results published in ChEMBL document CHEMBL1201862, “PubChem BioAssay data set” (2004).
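Assay format: 96-well plates, 48-hour exposure. GI50 is the concentration that inhibits growth by half.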 Active and inactive are the calls of the source. No stated cut-off is given here; in the data, active = GI50 up to about 1.1 µM and inactive = higher.

Columns and labels:
Assay in all cases: growth of human tumour cells (NCI), 48 h
RXF 393 = system: RXF 393
KM12 = system: KM12
MOLT-4 = system: MOLT-4
MCF7 = system: MCF7
NCI/ADR-RES = system: NCI/ADR-RES
HCC 2998 = system: HCC 2998
MDA-MB-231 = system: MDA-MB-231
MDA-N = system: MDA-N
ACHN = system: ACHN
SF-295 = system: SF-295
CAKI-1 = system: CAKI-1
IGROV-1 = system: IGROV-1
U-251 = system: U-251
NCI-H522 = system: NCI-H522
DU-145 = system: DU-145
EKVX = system: EKVX
786-0 = system: 786-0
OVCAR-8 = system: OVCAR-8
A498 = system: A498
NCI-H226 = system: NCI-H226

Compound	GI50 (RXF 393)	GI50 (KM12)	GI50 (MOLT-4)	GI50 (MCF7)	GI50 (NCI/ADR-RES)	GI50 (HCC 2998)	GI50 (MDA-MB-231)	GI50 (MDA-N)	GI50 (ACHN)	GI50 (SF-295)	GI50 (CAKI-1)	GI50 (IGROV-1)	GI50 (U-251)	GI50 (NCI-H522)	GI50 (DU-145)	GI50 (EKVX)	GI50 (786-0)	GI50 (OVCAR-8)	GI50 (A498)	GI50 (NCI-H226)
O=C(OCC(Cl)(Cl)Cl)N1CC[C@@H](C2CCCCC2)C1	18.3 µM (inactive)	17 µM (inactive)	33.8 µM (inactive)	22.1 µM (inactive)	18 µM (inactive)	18.6 µM (inactive)	43.3 µM (inactive)	31 µM (inactive)	22.8 µM (inactive)	19 µM (inactive)	27 µM (inactive)	75.5 µM (inactive)	0.1 µM (active)	21.7 µM (inactive)	35.6 µM (inactive)	23.1 µM (inactive)	20.6 µM (inactive)	–	–	–
O=C(/C=C\c1ccccc1)Oc1ccc(/C=C2\CCC/C(=C\c3ccc(OC(=O)/C=C\c4ccccc4)cc3)C2=O)cc1	–	> 100 µM (inactive)	> 100 µM (inactive)	> 100 µM (inactive)	> 100 µM (inactive)	> 100 µM (inactive)	> 100 µM (inactive)	> 100 µM (inactive)	> 100 µM (inactive)	> 100 µM (inactive)	> 100 µM (inactive)	–	> 100 µM (inactive)	> 100 µM (inactive)	> 100 µM (inactive)	> 100 µM (inactive)	> 100 µM (inactive)	> 100 µM (inactive)	–	–
CCOC(=O)C12C(=O)CCN1CCc1ccccc1C2C (stereo unspecified)	> 100 µM (inactive)	> 100 µM (inactive)	> 100 µM (inactive)	> 100 µM (inactive)	> 100 µM (inactive)	–	> 100 µM (inactive)	> 100 µM (inactive)	> 100 µM (inactive)	> 100 µM (inactive)	> 100 µM (inactive)	> 100 µM (inactive)	> 100 µM (inactive)	> 100 µM (inactive)	> 100 µM (inactive)	> 100 µM (inactive)	> 100 µM (inactive)	> 100 µM (inactive)	> 100 µM (inactive)	> 100 µM (inactive)
COc1ccc(OC)c(N(CN2C(=O)CCC2C(=O)O)C(C)=O)c1 (stereo unspecified)	–	> 100 µM (inactive)	> 100 µM (inactive)	> 100 µM (inactive)	> 100 µM (inactive)	–	> 100 µM (inactive)	> 100 µM (inactive)	> 100 µM (inactive)	> 100 µM (inactive)	> 100 µM (inactive)	> 100 µM (inactive)	> 100 µM (inactive)	> 100 µM (inactive)	> 100 µM (inactive)	> 100 µM (inactive)	> 100 µM (inactive)	> 100 µM (inactive)	> 100 µM (inactive)	> 100 µM (inactive)
O=C(O)c1ccc(Nc2nc3ccc(C(F)(F)F)cc3nc2C(=O)O)cc1	> 100 µM (inactive)	> 100 µM (inactive)	> 100 µM (inactive)	> 100 µM (inactive)	> 100 µM (inactive)	> 100 µM (inactive)	> 100 µM (inactive)	> 100 µM (inactive)	> 100 µM (inactive)	> 100 µM (inactive)	> 100 µM (inactive)	> 100 µM (inactive)	> 100 µM (inactive)	> 100 µM (inactive)	> 100 µM (inactive)	> 100 µM (inactive)	> 100 µM (inactive)	> 100 µM (inactive)	–	> 100 µM (inactive)
CC(=O)NN/C=N/C(C#N)=C(\N)C#N	–	> 100 µM (inactive)	> 100 µM (inactive)	> 100 µM (inactive)	> 100 µM (inactive)	> 100 µM (inactive)	> 100 µM (inactive)	> 100 µM (inactive)	> 100 µM (inactive)	> 100 µM (inactive)	> 100 µM (inactive)	> 100 µM (inactive)	> 100 µM (inactive)	> 100 µM (inactive)	> 100 µM (inactive)	> 100 µM (inactive)	> 100 µM (inactive)	> 100 µM (inactive)	> 100 µM (inactive)	> 100 µM (inactive)
Cc1c2n(c3ccccc13)S(=O)(=O)c1ccccc1-2	–	> 100 µM (inactive)	> 100 µM (inactive)	28.9 µM (inactive)	28.1 µM (inactive)	> 100 µM (inactive)	17.8 µM (inactive)	34.9 µM (inactive)	18.1 µM (inactive)	17.3 µM (inactive)	12.3 µM (inactive)	25.3 µM (inactive)	18.4 µM (inactive)	34.2 µM (inactive)	47.2 µM (inactive)	6.37 µM (inactive)	10.1 µM (inactive)	21.2 µM (inactive)	11 µM (inactive)	77.3 µM (inactive)
CCN(CC)P1(=S)Oc2ccc3ccccc3c2-c2c(ccc3ccccc23)O1	–	5 µM (inactive)	> 100 µM (inactive)	> 100 µM (inactive)	> 100 µM (inactive)	77.4 µM (inactive)	> 100 µM (inactive)	51.2 µM (inactive)	67.3 µM (inactive)	> 100 µM (inactive)	> 100 µM (inactive)	89.3 µM (inactive)	> 100 µM (inactive)	60.1 µM (inactive)	> 100 µM (inactive)	> 100 µM (inactive)	> 100 µM (inactive)	> 100 µM (inactive)	> 100 µM (inactive)	> 100 µM (inactive)
